Values after ≈ are worked out from the molar mass of the structure shown. Like-named read-outs stand apart in the source and are kept apart here.
Key:
[1] = target: T1, human A2A AR (Homo sapiens, UniProt P29274); assay: Radioligand binding assay at human A2A AR vs. [^3H]MSX-2; details: CHO cell membranes, n = 3, read-out: Ki ± SEM, A2A vs. [^3H]MSX-2
T1 construct: expressed in transfected cells; host or cells: CHO cells
Method in brief: (§1)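 Membranes were prepared from rat brain cortex for A1 and from rat striatum for A2A, then used in radioligand displacement. For the human receptors, CHO cells recombinantly expressing a single AR subtype supplied the membranes.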

[2] = target: T2, recombinant human MAO-A (Homo sapiens, UniProt P21397); assay: Monoamine oxidase assay (Amplex Red), MAO-A; type: biochemical; details: for inhibition at 10 µM: at 10,000 nM, read-out: % inhibition at indicated concentration, Human MAO-A; for IC50: n = 3, read-out: IC50 ± SEM, Human MAO-A
T2 construct: purchased Sigma-Aldrich M7316; host or cells: baculovirus-infected insect cells
T2 sequence (P21397 1-527): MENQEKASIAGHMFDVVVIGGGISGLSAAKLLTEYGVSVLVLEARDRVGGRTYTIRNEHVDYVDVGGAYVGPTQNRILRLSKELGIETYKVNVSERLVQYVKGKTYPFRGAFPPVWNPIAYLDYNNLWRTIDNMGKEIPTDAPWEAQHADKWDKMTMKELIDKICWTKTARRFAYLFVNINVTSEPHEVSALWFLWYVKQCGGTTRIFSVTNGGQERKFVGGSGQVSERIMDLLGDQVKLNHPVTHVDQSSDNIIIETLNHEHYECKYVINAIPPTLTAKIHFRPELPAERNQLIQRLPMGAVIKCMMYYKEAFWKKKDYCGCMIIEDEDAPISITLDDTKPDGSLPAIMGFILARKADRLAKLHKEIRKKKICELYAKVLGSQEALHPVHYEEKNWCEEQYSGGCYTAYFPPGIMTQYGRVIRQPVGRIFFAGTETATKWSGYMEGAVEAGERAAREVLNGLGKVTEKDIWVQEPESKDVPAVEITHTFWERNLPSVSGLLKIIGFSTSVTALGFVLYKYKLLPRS
Method in brief: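 Recombinant human MAO-A and MAO-B, expressed in baculovirus-infected insect cells, were assayed by Amplex Red fluorometric detection. Rat MAO-B inhibition used mitochondria-enriched fractions from male Sprague Dawley rat liver.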

[3] = target: T3, rat A1 AR (Rattus norvegicus, UniProt P25099); assay: Radioligand binding assay at rat A1 AR (rat brain cortex) vs. [^3H]CCPA; details: rat (r); rat brain cortex; n = 3
T3 construct: A1 ARs of rat brain cortical membrane; from tissue; host or cells: rat brain cortex membranes
T3 sequence (P25099 1-326): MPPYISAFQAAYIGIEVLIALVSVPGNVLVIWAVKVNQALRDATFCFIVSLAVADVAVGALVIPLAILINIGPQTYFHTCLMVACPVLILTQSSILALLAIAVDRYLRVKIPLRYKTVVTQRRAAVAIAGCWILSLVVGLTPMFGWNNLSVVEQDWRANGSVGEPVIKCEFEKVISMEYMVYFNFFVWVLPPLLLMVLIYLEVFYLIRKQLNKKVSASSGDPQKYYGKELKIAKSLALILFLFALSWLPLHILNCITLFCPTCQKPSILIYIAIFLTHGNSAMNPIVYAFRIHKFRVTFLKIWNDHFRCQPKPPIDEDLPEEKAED
Method in brief: as §1

[4] = Thermodynamic solubility measurements; type: physicochemical; details: thermodynamic from solid, thermodynamic solubility
Excerpt: This is expected to facilitate dissolution in the stomach. Depending on the substitution pattern they may also be well soluble at higher pH values (Brunschweiger et al., [2014]). In the present study we measured thermodynamic solubility of only very few compounds exemplarily (14a-e, 14g, 15f,g) and confirmed their high solubility at pH 1 (see Table S1 in Supplementary Material). Most of these compounds were still soluble at pH 7.4. The best soluble derivative was the 3-ethyl-1-methyl-8-m-fluorobenzyl derivative 14g with solubilities of >1.5 g/L (4.2 mM) at pH 1, 50 mg/L (0.14 mM) at pH 4, and 40 mg/L ([…]) at pH 7.4.
Table S1. Solubility of selected compounds at three different pH values (in mg/mL).a
Compound pH 1 pH 4 pH 7.4
adetermined by thermodynamic solubility measurements.

[5] = aqueous buffer, pH 4, read-out: Solubility, pH 4
[6] = aqueous buffer, pH 7.4, read-out: Solubility, pH 7.4
[7] = simulated gastric fluid, pH 1, read-out: Solubility, pH 1

T1 sequence (P29274 whole entry): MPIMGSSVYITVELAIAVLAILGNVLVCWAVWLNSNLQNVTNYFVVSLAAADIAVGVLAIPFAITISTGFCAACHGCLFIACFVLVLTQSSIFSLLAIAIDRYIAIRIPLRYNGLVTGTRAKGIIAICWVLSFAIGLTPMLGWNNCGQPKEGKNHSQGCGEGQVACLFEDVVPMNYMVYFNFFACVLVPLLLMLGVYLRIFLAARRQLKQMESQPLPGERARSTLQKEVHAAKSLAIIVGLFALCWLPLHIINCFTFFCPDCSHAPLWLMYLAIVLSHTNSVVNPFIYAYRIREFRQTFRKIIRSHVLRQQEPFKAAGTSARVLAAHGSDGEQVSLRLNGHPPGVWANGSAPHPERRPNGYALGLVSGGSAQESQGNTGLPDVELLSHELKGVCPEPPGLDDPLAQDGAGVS

| Compound | Ki [1] | inhibition at 10 µM [2] | IC50 [2] | Ki [3] | solubility [4, 5] | solubility [4, 6] | solubility [4, 7] |
| --- | --- | --- | --- | --- | --- | --- | --- |
| CCn1c(=O)c2c(nc3n2CCN(Cc2cccc(C(F)(F)F)c2)C3)n(C)c1=O [Compound 14e, 3-ethyl-1-methyl-8-(3-(trifluoromethyl)benzyl)-6,7,8,9-tetrahydropyrazino[2,1-f]purine-2,4(1H,3H)-dione] | 1780 nM | 12% | > 10 µM | 49.1 ± 6.2 nM | 2 µg/mL (≈ 4.91 µM) | 2 µg/mL (≈ 4.91 µM) | 400 µg/mL (≈ 982 µM) |
| CCn1c(=O)c2c(nc3n2CCN(Cc2ccccc2Br)C3)n(C)c1=O [Compound 14a, 8-(2-bromobenzyl)-3-ethyl-1-methyl-6,7,8,9-tetrahydropyrazino[2,1-f]purine-2,4(1H,3H)-dione] | 497 ± 62 nM |  |  | 123 ± 34 nM | 0.9 µg/mL (≈ 2.15 µM) | 0.8 µg/mL (≈ 1.91 µM) | 200 µg/mL (≈ 478 µM) |
| CCn1c(=O)c2c(nc3n2CCN(Cc2ccccc2C(F)(F)F)C3)n(C)c1=O [Compound 14d, 3-ethyl-1-methyl-8-(2-(trifluoromethyl)benzyl)-6,7,8,9-tetrahydropyrazino[2,1-f]purine-2,4(1H,3H)-dione] |  | 5% | > 10 µM | 114 ± 15 nM | 1 µg/mL (≈ 2.45 µM) | < 0.5 µg/mL | 200 µg/mL (≈ 491 µM) |
| CCn1c(=O)c2c(nc3n2CCN(Cc2ccc(Br)cc2)C3)n(C)c1=O [Compound 14c, 8-(4-bromobenzyl)-3-ethyl-1-methyl-6,7,8,9-tetrahydropyrazino[2,1-f]purine-2,4(1H,3H)-dione] |  | 2% | > 10 µM | 156 ± 21 nM | 6 µg/mL (≈ 14.3 µM) | 3 µg/mL (≈ 7.17 µM) | 1300 µg/mL (≈ 3110 µM) |
| CCn1c(=O)c2c(nc3n2CCN(Cc2cccc(C(F)(F)F)c2)C3)n(CC)c1=O [Compound 15g, 1,3-diethyl-8-(3-(trifluoromethyl)benzyl)-6,7,8,9-tetrahydropyrazino[2,1-f]purine-2,4(1H,3H)-dione] | 277 ± 59 nM |  |  | 30 ± 5.7 nM | 2 µg/mL (≈ 4.75 µM) | 2 µg/mL (≈ 4.75 µM) | 600 µg/mL (≈ 1420 µM) |

Source: PMC6028563, “Probing Substituents in the 1- and 3-Position: Tetrahydropyrazino-Annelated Water-Soluble Xanthine Derivatives as Multi-Target Drugs With Potent Adenosine Receptor Antagonistic Activity” (Frontiers in Chemistry, 2018)
